From patent publication US20180000768A1, “INTESTINAL FXR AGONISM ENHANCES GLP-1 SIGNALING TO RESTORE PANCREATIC BETA CELL FUNCTIONS” (Salk Institute for Biological Studies, priority 2015, published 2018)

Legend:
[1] = test system: human enteroendocrinal L cells (NCI-H716); assay: In vitro GLP-1 secretion assay; type: cell-based; details: L cells pretreated with compound
Method: In vitro GLP-1 secretion assay was performed in human enteroendocrinal L cells (NCI-H716). For each secretion assay, cells were seeded at 1×10^5 cells/ml (1 ml/well) in a matrigel-coated 24-well plate. Prior to GLP-1 secretion assay, cells were pre-treated with DMSO, 1 μM Fex, or 1 μM Fex-D overnight. Cells were deprived in Krebs buffer (with 0.1% BSA) with dipeptidyl peptidase (DPP)-4 inhibitor ([…] sitagliptin). GLP-1 was measured with a commercial kit (EZGLP1T-36K, Millipore). For in vivo GLP-1 secretion, each animal was gavaged with 25 mg per kg of body weight sitagliptin 60-minutes before glucose load. Blood was collected from the tail vein at the indicated intervals, and transferred to serum collection tubes containing sitagliptin.

enteroendocrinal L cells = assay: Gene expression analysis (QPCR) in enteroendocrinal L cells; type: cell-based, human
ob/ob mice = assay: gene expression (RNA-Seq, QPCR) in tissues of treated ob/ob mice; type: in vivo, mouse; details: INT-777 60 mg/kg P.O. for 5 weeks
Method: Total RNA was isolated from cell pellets treated with RNAlater using the RNA mini kit (Qiagen) and treated with DNaseI (Qiagen) for 30 minutes at room temperature. Sequencing libraries were prepared from 100-500 ng total RNA using the TruSeq RNA Sample Preparation Kit v2 (Illumina) according to the manufacturer's protocol. Briefly, mRNA was purified, fragmented, and used for first-, then second-strand cDNA synthesis followed by adenylation of 3′ ends. Samples were ligated to unique adapters and subjected to PCR amplification. Mulitplexed libraries were then validated using the 2100 BioAnalyzer (Agilent), normalized, and pooled for sequencing. RNA-Seq libraries prepared from two biological replicates for each experimental condition were sequenced on the Illumina HiSeq 2500 using bar-coded multiplexing and a 100 bp read length.
Image analysis and base calling were performed with Illumina CASAVA-1.8.2. This yielded a median of 29.9M usable reads per sample. Short read sequences were mapped to a UCSC mm9 reference sequence using the RNA-seq aligner STAR. Known splice junctions from mm9 were supplied to the aligner and de novo junction discovery was also permitted. Differential gene expression analysis, statistical testing and annotation were performed using Cuffdiff 2. Transcript expression was calculated as gene-level relative abundance in fragments per kilobase of exon model per million mapped fragments and employed correction for transcript abundance bias. RNA-Seq results for genes of interest were also explored visually using the UCSC Genome Browser.

[2] = in vitro permeability in Caco2 cells; details: human; for Papp A→B at 2 h, 10 μM: Caco2 cells, assay conc. 10 μM
in vitro = details: human
isolated islets = assay: gene expression after direct ex vivo treatment of isolated islets; type: cell-based, mouse; details: 24 hours ex vivo, XL335 1 μM, Fex 1 μM
Method: Leptin-deficient ob/ob mice were treated daily with vehicle, Fex, or the analogue Fex-D (50 mg/kg) via P.O. for 14 days (A) Chemical structures of fexaramine and Fex-D (B) Schematic of the experimental design (C) Serum glucose levels (D) Glucose tolerance test (E) Insulin secretion in vivo (F) GLP-1 secretion in vivo (G) Heatmap showing hierarchal clustering of gene expression changes in islet induced by Fex (100 mg/kg, 4 wks) and FexD (50 mg/kg, 2 weeks) treatment in ob/ob mice (in vivo); by treatment of islets with XL335 (1 μM), Fex (1 μM), mFgf15 and hFgf19 (24 hours ex vivo); and mFgf15 (0.15 mg/kg, 2 weeks) and INT777 (Tgr5, 60 mg/kg, 4 weeks) treatment of ob/ob mice (in vivo). Gene expression was measured by RNA-Seq and changes are expressed as Z-score. (H) Ven diagram of changes in gene expression in pancreatic islets induced by FEX (100 mg/kg for 5 weeks) and FEX-D (50 mg/kg for 14 days). […] Data represent the mean±STD. Statistical analysis was performed with the Student's t test. *p<0.05, **p<0.01.
Next, primary islets were isolated from mice treated by Fex-D to compare gene expression changes.

NCI-H716 cells = assay: Extracellular oxygen consumption rate assay (Seahorse XF96); type: cell-based, human
Method: Briefly, NCI-H716 cells were seeded in XF 96-well cell culture microplates (Seahorse Bioscience) at 6.0×10^4 cells per well in 150 μl of growth medium and then incubated at 37° C./5% CO2 for 24 hr. A Seahorse Bioscience instrument model XF96 was used to measure the rate of change of dissolved oxygen in the media surrounding the cells. All procedures followed manufacturer's instructions. […] Conversely, treatment with the FXR antagonist guggulsterone reduced basal respiratory rates and the FCCP-induced maximum respiration rate (FIGS. 9A and 9B). To examine the effects of FXR activity on the secretion of GLP-1, the metabolic changes induced in human L cells was measured after treatment with the FXR agonist, fexaramine and an FXR antagonist, guggulsterone. Treatment of L cells with fexaramine (1 μM for 24 hours) lead to an increase in the oxygen consumption rate (OCR), consistent with increased mitochondrial activity and consequently, an increased energetic state (FIG. 9A). The reverse effect was seen after treatment with the FXR antagonist, guggulsterone, with lower OCR after drug treatment.

[3] = test system: pancreatic islets from ob/ob mice; assay: Insulin secretion assay on isolated pancreatic islets (ex vivo); type: cell-based, mouse; details: islets, 100 nM Exendin-4
Method: Mouse pancreatic islets were isolated from ob/ob mice according to a method used for rats traditionally. Briefly, 0.5 mg/ml collagenase P (Roche) diluted in HBSS buffer was injected through the common bile duct and the perfused pancreas was dissected and incubated in water bath with 37° C. for 21 minutes. Digested exocrine cells and intact islets were separated using Histopaque-1077 (SIGMA) with centrifugation by 900 g for 15 minutes and intact islets were picked up manually.
Insulin release from intact islets was monitored using batch incubation methods.
Isolated pancreatic islets were cultured over-night with […] supplemented with 10% (v/v) fetal bovine serum and 1% (v/v) Antibiotics-antimycotic solution, were pre-cultured at 37° C. for 30 minutes in Krebs Ringer bicarbonate buffer (KRBH) containing 129.4 mM NaCl, 3.7 mM KCl, 2.7 mM CaCl2, 1.3 mM KH2PO4, 1.3 mM MgSO4, 24.8 mM NaHCO3 (equilibrated with 5% CO2, 95% O2, pH7.4), 10 mM HEPES and 0.2% (v/v) BSA (fraction V) with 3 mM glucose. N ext, the pancreatic islets were incubated for 30 minutes KRBH buffer (500 μl/10 islets) with 3 mM or 20 mM glucose with or without 100 nM Exendin-4 to determine insulin secretion levels. At the end of the incubation period, islets were pelleted by centrifugation, and aliquots of the buffer were sampled. The amounts of insulin were determined by Rat/mouse Insulin ELISA KIT (Millipore) for mice islets.

[4] = Caco-2, A-B Permeability Ranking
[5] = Caco-2, Mean Papp, A-B, 2 hour incubation

| Compound | Papp B→A at 2 h, 10 μM ([2]; Caco-2) [×10⁻⁶ cm/s] | recovery at 2 h, 10 μM ([2]; Caco-2) [%] | Papp A→B at 2 h, 10 μM [2, 4] [×10⁻⁶ cm/s] | Papp A→B at 2 h, 10 μM [2, 5] [×10⁻⁶ cm/s] | other results |
| --- | --- | --- | --- | --- | --- |
| CC[C@H]1[C@@H](O)[C@@H]2[C@H](C[C@H](O)[C@]3(C)[C@@H]([C@H](C)C[C@H](C)C(=O)O)CC[C@@H]23)[C@@]2(C)CC[C@@H](O)C[C@@H]12 [INT-777] | – | – | – | – | GLP-1 secretion in response to a glucose challenge [1]: increased; SHP expression (FXR target gene) (enteroendocrinal L cells): not; proglucagon expression (enteroendocrinal L cells): selectively induced; expression of the GLP-1 receptor in islets (ob/ob mice): significantly increased |
| [2H]C(c1ccc(-c2ccc(N(C)C)cc2)cc1)N(C(=O)[C@@H]1C[C@@H]2CC[C@H]1C2)c1cc(F)cc(/C=C/C(=O)OC)c1 (stereo partly shown) [NSSK 00024] | 0.23 | 192 | < 1 | 0.0294 | – |
| [2H]C(c1ccc(-c2ccc3c(cnn3C)c2)cc1F)N(C(=O)C1CCCCC1)c1cccc(/C=C/C(=O)OC)c1 (stereo not shown) [NSSK 00089] | 0.064 | 67.1 | < 1 | 0.0962 | – |
| [2H]C(c1ccc(-c2ccc3c(cnn3C)c2)cc1)N(C(=O)C1CCCCC1)c1cc(F)cc(/C=C/C(=O)OC)c1 (stereo not shown) [NSSK 00096] | 0.0399 | 69.9 | < 1 | 0.0104 | – |
| CNC(=C[N+](=O)[O-])NCCSCc1ccc(CN(C)C)o1 [Ranitidine] | 0.922 | 92.7 | < 1 | 0.274 | efflux ratio at 2 h, 10 μM ([2]; Caco-2): 3.36 |
| CC(=O)CC(c1ccccc1)c1c(O)c2ccccc2oc1=O (stereo not shown) [Warfarin] | – | – | – | – | Papp B→A at 2 h, 10 μM (in vitro; Caco-2): 29.8 ×10⁻⁶ cm/s; efflux ratio at 2 h, 10 μM (in vitro; Caco-2): 0.695; recovery at 2 h, 10 μM (in vitro; Caco-2): 101%; Papp A→B at 2 h, 10 μM (in vitro; [4]): > 1 ×10⁻⁶ cm/s; Papp A→B at 2 h, 10 μM (in vitro; Caco-2, Mean Papp, A-B): 42.8 ×10⁻⁶ cm/s |
| CC(C)OC(=O)C1=CN(C(=O)c2ccc(F)c(F)c2)CC(C)(C)c2c1[nH]c1ccccc21 [XL335] | – | – | – | – | transcriptional changes seen in islets in vivo with Fex and Fex-D (isolated islets): not observed |
| C/C=C1\C(=O)C[C@H]2[C@@H]3CCC4=CC(=O)CC[C@]4(C)[C@H]3CC[C@]12C [guggulsterone] | – | – | – | – | basal respiratory rates and the FCCP-induced maximum respiration rate (NCI-H716 cells; L cells, guggulsterone 10 μM for 24 hr): reduced; oxygen consumption rate (OCR) (NCI-H716 cells; human L cells, 24 hours, fexaramine 1 μM, guggulsterone 10 μM): lower |
| Exendin-4: GLP-1 agonist | – | – | – | – | ex vivo insulin secretion in presence of GLP-1 agonist [3]: further potentiated |
| hFgf19: hFgf19 protein used for direct ex vivo treatment of isolated islets | – | – | – | – | transcriptional changes seen in islets in vivo with Fex and Fex-D (isolated islets): not observed |
